Measured values taken from patent US9795587B2, “Compounds for enhancing hypoxia inducible factor activity and methods of use” (Cornell Research Foundation, Inc., priority 2005, dated 2017).

Key:
[1] = system: hypoxia response element regulated reporter gene; test: Hypoxia response element (enolase promoter) luciferase reporter in cortical neurons; assay type: cell-based, rat; conditions: 40 μM, positive control, FIG. 5
Method: FIG. 5. A cell permeant, peptide inhibitor of the HIF prolyl 4-hydroxylase, but not a mutant control, induces expression of HIF-dependent genes. […] The low molecular weight P4H inhibitor, FG-0041 (40 μM) was used as a positive control. To determine whether the Tat-HIF/ODD/wt peptide stabilizes HIF-1 leading to activation of HIF-1 dependent gene expression, the levels of a luciferase reporter gene that is regulated by a hypoxia response element found in the enolase gene promoter was monitored.

HIF-1 = test: HIF-luciferase reporter (enolase 1 promoter-luciferase) in stably transfected HT22 cells; assay type: cell-based; conditions: HT22 murine hippocampal cells, FIG. 3
Method: HT22 murine hippocampal cells were stably transfected with an enolase 1 promoter-luciferase reporter construct and selected with puromycin. Tilorone analogues R-10,874-DA, R-11,567-DA, and R-9536-DA were tested for their ability to activate a HIF-luciferase reporter. Luciferase activity was measured using a Luciferase Assay System (PROMEGA) according to the manufacture's protocol.

HIF-1 target genes = test: Expression of HIF-1 target genes in rat cerebral cortex (real time RT-PCR); assay type: in vivo; conditions: 100 mg/kg i.p., Sprague Dawley rats, FIG. 4
Method: HIF-1α protein levels were determined in nuclear extracts using a monoclonal anti-HIF-1α antibody (NOVUS Biologicals). Real time RT-PCR was performed in a ABI-7500 instruments using commercial Taqman gene expression assays (Applied BioSystems). Male Sprague Dawley rats, weighing 275-350 gm, were used in these experiments. For surgical procedures, anesthesia was induced with 5% isofluorane delivered in oxygen and maintained at 1.5% throughout surgery. Core body temperature was maintained at 37° C. by a homeothermic heating blanket. Animals were subjected to MCAo by the intraluminal filament method. The right external carotid artery was ligated, cauterized, and cut, and its branches were coagulated. A 35 mm length of 4-0 nylon monofilament (Ethicon) with a rounded tip was then inserted into the internal carotid artery via the proximal end of the external carotid artery stump. The filament was advanced 20 mm beyond the carotid artery bifurcation with slight resistance was encountered. The tilorone analogues R-10,874-DA, R-11,567-DA, and R-9536-DA were injected 100 mg/kg i.p. 24 h pre-MCAo. Equivalent volume of saline was injected i.p. to control rats. Animals were sacrificed 24 h post-MCAo.

`O=C(O)c1c[nH]c2c(ccc3cccnc32)c1=O` [FG-0041] was tested, and the “induction of the HIF-dependent reporter gene” value [1] was “stimulated”.

In the case of `CN(C)CC(=O)c1ccc2oc3ccc(C(=O)CN(C)C)cc3c2c1.Cl.Cl.O` [R-11,567-DA, 2,8-bis[dimethylaminoacetyl]dibenzofurin dihydrochloride hydrate], the “HIF-1 transcriptional activity (HIF-luciferase reporter)” value (HIF-1) is reported as “increase HIF-1 transcriptional activity” and the “expression of HIF-1 target genes in the rat cerebral cortex” value (HIF-1 target genes) is reported as “induce the expression of HIF-1 target genes”.

With `CN(C)CCOc1ccc2c(=O)c3ccc(OCCN(C)C)cc3oc2c1.Cl.Cl` [R-10,874-DA, 3,6-bis[2-(dimethylamino)ethoxy]-9h-xanthen-9-one dihydrochloride] the “HIF-1 transcriptional activity (HIF-luciferase reporter)” value (HIF-1) was “increase HIF-1 transcriptional activity” and the “expression of HIF-1 target genes in the rat cerebral cortex” value (HIF-1 target genes) was “induce the expression of HIF-1 target genes”.
